The values that follow are results of earlier work, collected in paper PMC9501525, “Conjugation of a Cationic Cell-Penetrating Peptide with a Novel Kunitzin-like Trypsin Inhibitor: New Insights for Enhancement of Peptide Bioactivities” (Pharmaceutics, 2022).

One data set has as its system MRSA (NCTC 12493). Conditions: ref [26]; cited from earlier work. The source says:
(§1) Table 3 MIC/MBC of kunitzin-OV2 and its relatives against different microorganisms. | column: TAT ^a

The test system of the next data set is C. albicans (ATCC 10231). The settings on record: ref [26]; cited from earlier work.
Excerpt: as §1

Another data set concerns E. coli (ATCC 8739). Conditions: ref [26]; cited from earlier work.
Excerpt: as §1

The subject of the next data set is S. aureus (ATCC 6538). Conditions: ref [26]; cited from earlier work.
Excerpt: as §1

Data set [1] deals with P. aeruginosa (ATCC 9027). The settings on record: ref [26]; cited from earlier work.
Excerpt: as §1

For another data set, the system named is E. coli. On the set-up: method as in PMID 28943153. Conditions: ref [41]; cited from earlier work.

What is called MBC is the lowest tested concentration that kills the bacteria rather than only halting them. One may read the MIC as the smallest concentration in the dilution series that meets the test's criterion for growth inhibition. Turning to “RKKRRQRRR [TAT, classical short cationic cell-penetrating peptide TAT48–56]”, the minimum bactericidal concentration (MBC) (in the data set on MRSA (NCTC 12493); in the data set with C. albicans (ATCC 10231); in the data set on E. coli (ATCC 8739); in the data set on S. aureus (ATCC 6538); in data set [1]) was over 128 µM each time. Moreover, the MIC (with MRSA (NCTC 12493); in the data set on C. albicans (ATCC 10231); with E. coli (ATCC 8739); in the data set with S. aureus (ATCC 6538); in data set [1]) was over 128 µM in each case.
Regarding “melittin: typical AMP, literature comparator, ref”, in the data set with E. coli, the MBC is 64 to 128 µg/mL and the MIC is 40 to 42.5 µg/mL.
